From US20130303479A1, “Antiretroviral Cyclonucleoside Compositions and Methods and Articles of Title of Invention Manufacture Therewith” (priority 2011, published 2013)
Entries after “also recorded” stand apart in the source; their conditions may differ.

Assays:
[1] = system: vsv-g pseudotyped HIV-1 virus; type: cell-based
HIV [2] = experiment: Inhibition of HIV replication in experimental T cell cancer lines; type: cell-based
HIV-1 (wt) = experiment: Inhibition of HIV replication in primary peripheral blood mononuclear cells (p24 ELISA); type: cell-based; conditions: Human immunodeficiency virus 1, PBMC, read-out: EC50, inhibition of HIV replication
Procedure: Human peripheral blood mononuclear cells (PBMCs) purified from donors were cultured (RPMI+10% FBS) and stimulated pre-infection (24 hrs) and every 3 days for three weeks with 2 ng/ml of phytoheaemagglutinin (PHA) and 1 U/ml IL-2. 24 hours following the initial stimulation the samples were incubated for one hour with the indicated amounts of NSC166641 and then infected with 300 ng HIV-1 (wt). Samples were analyzed via ELISA p24. (See FIG. 7).

[3] = target: T1, reverse transcriptase (RT) (Human immunodeficiency virus type 1 group M subtype B, UniProt P03366); experiment: Roche reverse transcriptase assay kit; type: biochemical; conditions: indicated amounts
T1 construct: Results of the Roche reverse transcriptase (AT) assay kit; purchased Roche
Procedure: Results of the Roche reverse transcriptase […] assay kit utilizing the indicated amounts of NSC166641. RT activity was measured as a percentage compared to the positive control. […] (See FIG. 9).

Human recombinant dCK = Human recombinant dCK (Homo sapiens, UniProt P27707); experiment: dCK inhibition curve with deoxyinosine as substrate; type: biochemical; conditions: deoxyinosine (dIR) substrate, duplicate
Procedure: Inhibiting the activity of the dCK enzyme is useful. […] Human recombinant dCK activity was characterized using deoxyinosine (dIR) as a substrate. Assays were performed in duplicate in 200 μL of reaction mixture (96-well plate). Reactions were started by adding dIR at various concentrations and the percent inhibition was determined as compared to the positive control via spectrophotometer. […] (See FIG. 35).

[4] = system: vsv-g pseudotyped HIV-1 virus; type: cell-based; remark: listed apart in the source
HIV [5] = experiment: EC50 stated in embodiments, test not specified; type: cell-based
[6] = in vivo; cited from earlier work
cells = conditions: cited from earlier work
HIV-1 (wt) virus = type: cell-based
Procedure: G11 HIV reporter cells (200K) were seeded in 5 ml falcon tubes (RPMI+10% FBS) and incubated with the indicated amounts of NSC129220 (CAS 10212-28-9) for one hour before infection with HIV-1 (wt) virus (250 ng). Samples were stained with propidium iodide and analyzed for GFP expression via flow cytometer at 48 and 72 hours post infection. (See FIG. 2).
Example FACS dot plots of live G11 cells expressing HIV induced expression of GFP. […] (See FIG. 27).

Chain of Human recombinant dCK (P27707 whole entry): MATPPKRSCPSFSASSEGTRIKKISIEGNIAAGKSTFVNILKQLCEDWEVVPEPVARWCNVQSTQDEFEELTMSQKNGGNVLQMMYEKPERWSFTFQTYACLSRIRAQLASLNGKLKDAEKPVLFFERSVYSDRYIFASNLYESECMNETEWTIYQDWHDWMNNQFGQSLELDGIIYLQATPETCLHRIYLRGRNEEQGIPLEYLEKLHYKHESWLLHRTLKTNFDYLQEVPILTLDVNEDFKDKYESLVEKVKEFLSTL

CCOC(N)=O [ethyl carbamate]
anti-HIV activity in screen (luciferase expression) [1]: Activity was not detected

Cl.N=c1ccn2c(n1)O[C@H]1[C@H](O)[C@@H](CO)O[C@H]12 [O2,2′-cyclocytidine hydrochloride]
lowest dose at which anti-HIV activity was seen [1]: 40 µM

N=c1nc2n(cc1F)[C@@H]1O[C@H](CO)[C@@H](O)[C@@H]1O2 [AAFC, 5-fluoro-2,2′cyclocytidine]
dose dependent effect on Clone 64 cells [1]: dose dependent effect | dose-dependent activity (luciferase) [1]: Dose-dependent activity was detected | lowest dose at which anti-HIV activity was seen [1]: 40 µM | EC50 (HIV [2]; Human immunodeficiency virus 1, read-out: EC50, inhibition of HIV replication, experimental T cell cancer lines): < 500 nM | concentration directly inhibiting HIV replication in vitro (HIV [2]; a number of experimental cell lines and primary cells): < 500 nM | inhibition of HIV replication on post infection treatment (HIV [2]; post exposure of cells infected with HIV-1, experimental cell lines): dramatically inhibit HIV replication | EC50 (HIV-1 (wt)): < 0.7 nM | inhibition of RT activity vs positive control [3]: little or no inhibition of RT | IC50 (Human recombinant dCK): 32000 nM | rescue of luciferase expression by dC, dT or both [4]: addition of dC but not dT may be able to rescue luciferase expression in treated cells | rescue of luciferase expression by deoxycytidine [4]: Addition of dC appears to be able to rescue luciferase expression in treated cells; also recorded: Addition of dC is able to rescue luciferase expression in treated cells | EC50 (HIV [5]; Human immunodeficiency virus 1, another aspect of embodiments, read-out: EC50): ~10 nM | EC50 (HIV [5]; Human immunodeficiency virus 1, one aspect of embodiments): ~0.7 nM | fraction of reagent passed through the body unchanged [6]: over 80% | phosphorylation compared to Ara-C [6]: less easily phosphorylated as compared to Ara-C | reversal of cell growth inhibition by nucleosides (cells): reversed by deoxycytidine but not by thymidine and deoxyuridine | thymidine incorporation (cells): inhibited thymidine incorporation into the acid-soluble fraction (DNA) of the cells

O=C1CN=C(c2ccc[nH]2)c2cc(Cl)ccc2N1 [benzodiazipen, Benzodiazepen]
anti-HIV activity in screen (luciferase expression) [1]: Anti-HIV activity was detected

c1ccc2ccccc2c1 [napthalen]
anti-HIV activity in screen (luciferase expression) [1]: Activity was not detected

COc1ccc2[nH]c3c(C)c4ccncc4c(C)c3c2c1 [methoxyellipticine, Methoxyellipticine]
anti-HIV activity in screen (luciferase expression) [1]: Anti-HIV activity was detected

Cc1cn([C@H]2C[C@H](N=[N+]=[N-])[C@@H](CO)O2)c(=O)[nH]c1=O [AZT, zidovudine]
dose dependent effect on Clone 64 cells [1]: dose dependent effect

O=C(O)c1ccccc1 [Benzoic acid]
anti-HIV activity in screen (luciferase expression) [1]: Activity was not detected

CC(=O)O.N=c1ccn2c(n1)OC1C(O)C(CO)OC12 (centres unmarked) [NSC129220, O2,2′-cyclocytidine monoacetate]
dose-dependent activity (luciferase) [1]: Dose-dependent activity was detected | lowest dose at which anti-HIV activity was seen [1]: 40 µM | cell viability (HIV-1 (wt) virus; FACS GFP assay, treated reporter cells (FIG. 27)): > 60% | inhibition of HIV induced GFP expression (confirmation of screen) (HIV-1 (wt) virus; live G11 cells, FACS dot plots): inhibition of HIV | rescue of luciferase expression by deoxycytidine [4]: Addition of dC is able to rescue luciferase expression in treated cells
